From patent US12723063B2, “GIPR-agonist compounds” (Eli Lilly and Company, priority 2019, dated 2026)

Legend:
human GIPR = target: T1, human GIPR (Homo sapiens, UniProt P48546); test: [125I]-GIP binding, SPA with WGA beads, 0.1% bacitracin; settings: geometric mean, read-out: hGIPR Ki
T1 construct: expressed in transfected cells; crude membranes
T1 sequence (P48546 22-466): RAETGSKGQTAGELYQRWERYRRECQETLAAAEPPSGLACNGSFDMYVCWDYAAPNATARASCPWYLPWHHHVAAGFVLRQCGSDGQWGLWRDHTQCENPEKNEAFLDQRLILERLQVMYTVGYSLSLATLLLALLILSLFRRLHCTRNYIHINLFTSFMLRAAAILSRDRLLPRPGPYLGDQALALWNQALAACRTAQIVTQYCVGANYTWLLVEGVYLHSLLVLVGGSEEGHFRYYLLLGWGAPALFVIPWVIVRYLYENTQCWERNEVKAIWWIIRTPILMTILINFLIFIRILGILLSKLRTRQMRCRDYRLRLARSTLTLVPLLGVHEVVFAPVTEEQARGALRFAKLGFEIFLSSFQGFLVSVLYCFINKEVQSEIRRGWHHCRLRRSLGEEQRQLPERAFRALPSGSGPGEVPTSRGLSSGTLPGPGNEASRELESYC
Method in brief: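 Ki values are geometric means (SEM, n independent days), derived from four-parameter nonlinear regression of IC50. Membranes came from hGIPR-expressing CHO cells.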

human GLP-1R = target: T2, human GLP-1R (Homo sapiens, UniProt P43220); test: [125I]-GLP-1 binding, SPA with WGA beads, 0.1% bacitracin; settings: geometric mean, read-out: hGLP1R Ki
T2 construct: expressed in transfected cells; crude membranes
T2 sequence (P43220 24-463): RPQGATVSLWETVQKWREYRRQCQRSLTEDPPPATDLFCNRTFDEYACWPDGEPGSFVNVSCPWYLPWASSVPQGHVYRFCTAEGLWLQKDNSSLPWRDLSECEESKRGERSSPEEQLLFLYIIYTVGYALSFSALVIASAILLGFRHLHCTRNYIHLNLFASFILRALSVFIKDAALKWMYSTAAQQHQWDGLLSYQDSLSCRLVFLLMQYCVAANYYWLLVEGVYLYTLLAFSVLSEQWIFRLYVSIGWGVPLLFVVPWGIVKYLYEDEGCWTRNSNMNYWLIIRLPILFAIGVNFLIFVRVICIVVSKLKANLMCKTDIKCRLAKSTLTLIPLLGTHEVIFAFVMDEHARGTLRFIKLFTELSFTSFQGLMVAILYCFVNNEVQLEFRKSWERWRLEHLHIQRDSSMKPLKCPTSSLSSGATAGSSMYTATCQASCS
Method in brief: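 Binding buffer was 25 mM HEPES pH 7.4 with 2.5 mM CaCl2, 1 mM MgCl2, 0.1% (w/v) bacitracin, 0.003% Tween-20 and EDTA-free protease inhibitors. Four-parameter regression gave IC50, converted to Ki (geometric mean, SEM, n independent days).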

[1] = Pharmacokinetics in male cynomolgus monkeys, single subcutaneous administration; type: in vivo, cynomolgus monkey; settings: 50 nmol/kg single SC, mean n = 2; for CL/F / Tmax / half-life: cynomolgus monkey, plasma
Experimental: The pharmacokinetics of select Examples are evaluated following a single subcutaneous administration of 50 nmol/kg to male cynomolgus monkeys. Blood samples are collected over 504 hours and resulting individual plasma concentrations are used to calculate pharmacokinetic parameters. Peptide plasma (K3 EDTA) concentrations are determined using a qualified LC/MS method that measured the intact mass of the compound. Each peptide and an analog as an internal standard are extracted from 100% cynomolgus monkey plasma using a protein precipitation method. Instruments are combined for LC/MS detection.

[2] = Pharmacokinetics in male Sprague Dawley rats, single subcutaneous administration; type: in vivo, Sprague Dawley rat; settings: 100 nmol/kg single SC, mean n = 3 (example 3 n = 1); for CL/F / Tmax / half-life: rat, plasma
Experimental: The pharmacokinetics of select Examples are evaluated following a single subcutaneous (SC) administration of 100 nmol/kg to male Sprague Dawley rats. Blood samples are collected over 168 hours following SC administration. Pharmacokinetic parameters are calculated using individual plasma concentrations. A qualified LC/MS method that measures the intact mass of the Example is used to determine plasma (K3 EDTA) concentrations. Each peptide and an analog as an internal standard are extracted from 100% rat plasma using a protein precipitation method. Instruments are combined for LC/MS detection. Mean pharmacokinetic parameters for the Examples are shown in […]

Compound | Ki (human GIPR) [pM] | Ki (human GLP-1R) [pM] | AUCInf/Dose [1] [hr*kg*nmol/L/nmol] | Cmax/Dose [1] [kg*nmol/L/nmol] | CL/F [1] [mL/h/kg] | Tmax [1] [h] | half-life [1] [h] | AUCInf/Dose [2] [hr*kg*nmol/L/nmol] | Cmax/Dose [2] [kg*nmol/L/nmol] | CL/F [2] [mL/h/kg] | Tmax [2] [h] | half-life [2] [h]
CC[C@H](C)[C@H](NC(=O)[C@H](CO)NC(=O)[C@H](Cc1ccc(O)cc1)NC(=O)[C@H](CC(=O)O)NC(=O)[C@H](CO)NC(=O)[C@@H](NC(=O)[C@H](Cc1ccccc1)NC(=O)[C@@H](NC(=O)CNC(=O)[C@H](CCC(=O)O)NC(=O)[C@@H](C)NC(=O)[C@@H](N)Cc1ccc(O)cc1)[C@@H](C)O)[C@@H](C)CC)C(=O)N[C@@H](CC(C)C)C(=O)N[C@@H](CC(C)C)C(=O)N[C@@H](CC(=O)O)C(=O)N[C@@H](CCCCN)C(=O)N[C@@H](CCCCNC(=O)COCCOCCNC(=O)COCCOCCNC(=O)CC[C@H](NC(=O)CCCCCCCCCCCCCCCCCCC(=O)O)C(=O)O)C(=O)N[C@@H](C)C(=O)N[C@@H](CCC(N)=O)C(=O)NC(C)(C)C(=O)N[C@@H](CC(=O)O)C(=O)N[C@@H](Cc1ccccc1)C(=O)N[C@H](C(=O)N[C@@H](CC(N)=O)C(=O)N[C@@H](Cc1c[nH]c2ccccc12)C(=O)N[C@@H](CC(C)C)C(=O)N[C@@H](CC(C)C)C(=O)N[C@@H](C)C(=O)N[C@@H](CCC(N)=O)C(=O)NCC(=O)N1CCC[C@H]1C(=O)N[C@@H](CO)C(=O)N[C@@H](CO)C(=O)NCC(=O)N[C@@H](C)C(=O)N1CCC[C@H]1C(=O)N1CCC[C@H]1C(=O)N1CCC[C@H]1C(=O)N[C@@H](CO)C(N)=O)C(C)C [Example 1] | 66.7 | 57800 | 786 | 7.20 | 1.27 | 24 | 71.1 | 280 | 3.62 | 3.57 | 24 | 37.4
CC[C@H](C)[C@H](NC(=O)[C@H](CO)NC(=O)[C@H](Cc1ccc(O)cc1)NC(=O)[C@H](CC(=O)O)NC(=O)[C@H](CO)NC(=O)[C@@H](NC(=O)[C@H](Cc1ccccc1)NC(=O)[C@@H](NC(=O)CNC(=O)[C@H](CCC(=O)O)NC(=O)[C@@H](C)NC(=O)[C@@H](N)Cc1ccc(O)cc1)[C@@H](C)O)[C@@H](C)CC)C(=O)N[C@@H](CC(C)C)C(=O)N[C@@H](CC(C)C)C(=O)N[C@@H](CC(=O)O)C(=O)N[C@@H](CCCCN)C(=O)N[C@@H](CCCCNC(=O)COCCOCCNC(=O)COCCOCCNC(=O)CC[C@H](NC(=O)CCCCCCCCCCCCCCCCC(=O)O)C(=O)O)C(=O)N[C@@H](C)C(=O)N[C@@H](CCC(N)=O)C(=O)NC(C)(C)C(=O)N[C@@H](CC(=O)O)C(=O)N[C@@H](Cc1ccccc1)C(=O)N[C@H](C(=O)N[C@@H](CC(N)=O)C(=O)N[C@@H](Cc1c[nH]c2ccccc12)C(=O)N[C@@H](CC(C)C)C(=O)N[C@@H](CC(C)C)C(=O)N[C@@H](C)C(=O)N[C@@H](CCC(N)=O)C(=O)NCC(=O)N1CCC[C@H]1C(=O)N[C@@H](CO)C(=O)N[C@@H](CO)C(=O)NCC(=O)N[C@@H](C)C(=O)N1CCC[C@H]1C(=O)N1CCC[C@H]1C(=O)N1CCC[C@H]1C(=O)N[C@@H](CO)C(N)=O)C(C)C [Example 2] | 37.3 | 77900 | 624 | 6.92 | 1.61 | 6 | 51.8 | 304 | 5.47 | 3.3 | 12 | 26.9
CC[C@H](C)[C@H](NC(=O)[C@H](Cc1ccccc1)NC(=O)[C@@H](NC(=O)CNC(=O)[C@H](CCC(=O)O)NC(=O)C(C)(C)NC(=O)[C@@H](N)Cc1ccc(O)cc1)[C@@H](C)O)C(=O)N[C@@H](CO)C(=O)N[C@@H](CC(=O)O)C(=O)N[C@@H](Cc1ccc(O)cc1)C(=O)N[C@@H](CO)C(=O)N[C@H](C(=O)N[C@@](C)(CC(C)C)C(=O)N[C@@H](CC(C)C)C(=O)N[C@@H](CC(=O)O)C(=O)N[C@@H](CCCCN)C(=O)N[C@@H](CCCCNC(=O)COCCOCCNC(=O)COCCOCCNC(=O)CC[C@H](NC(=O)CCCCCCCCCCCCCCCCCCC(=O)O)C(=O)O)C(=O)N[C@@H](Cc1c[nH]cn1)C(=O)N[C@@H](CCC(N)=O)C(=O)NC(C)(C)C(=O)N[C@@H](CC(=O)O)C(=O)N[C@@H](Cc1ccccc1)C(=O)N[C@H](C(=O)N[C@@H](CCC(=O)O)C(=O)N[C@@H](Cc1ccncc1)C(=O)N[C@@H](CC(C)C)C(=O)N[C@@H](CC(C)C)C(=O)N[C@@H](CCC(=O)O)C(=O)N[C@@H](C)C(=O)NCC(=O)N1CCC[C@H]1C(=O)N[C@@H](CO)C(=O)N[C@@H](CO)C(=O)NCC(=O)N[C@@H](C)C(=O)N1CCC[C@H]1C(=O)N1CCC[C@H]1C(=O)N1CCC[C@H]1C(=O)N[C@@H](CO)C(N)=O)C(C)C)[C@@H](C)CC [Example 3] | 52.5 | 381000 | 1764 | 12.1 | 0.57 | 60 | 88.8 | 130 | 3.03 | 7.67 | 12 | 24.9
CC[C@H](C)[C@H](NC(=O)[C@H](CCCCN)NC(=O)[C@H](CC(=O)O)NC(=O)[C@H](CC(C)C)NC(=O)[C@](C)(CC(C)C)NC(=O)[C@@H](NC(=O)[C@H](CO)NC(=O)[C@H](Cc1ccc(O)cc1)NC(=O)[C@H](CC(=O)O)NC(=O)[C@H](CO)NC(=O)[C@@H](NC(=O)[C@H](Cc1ccccc1)NC(=O)[C@@H](NC(=O)CNC(=O)[C@H](CCC(=O)O)NC(=O)C(C)(C)NC(=O)[C@@H](N)Cc1ccc(O)cc1)[C@@H](C)O)[C@@H](C)CC)[C@@H](C)CC)C(=O)N[C@@H](Cc1c[nH]cn1)C(=O)N[C@@H](CCC(N)=O)C(=O)NC(C)(C)C(=O)N[C@@H](CC(=O)O)C(=O)N[C@@H](Cc1ccccc1)C(=O)N[C@H](C(=O)N[C@@H](CCC(=O)O)C(=O)N[C@@H](Cc1ccc(O)cc1)C(=O)N[C@@H](CCCCNC(=O)COCCOCCNC(=O)COCCOCCNC(=O)CC[C@H](NC(=O)CCCCCCCCCCCCCCCCCCC(=O)O)C(=O)O)C(=O)N[C@@H](CC(C)C)C(=O)N[C@@H](CCC(=O)O)C(=O)NCC(=O)NCC(=O)N1CCC[C@H]1C(=O)N[C@@H](CO)C(=O)N[C@@H](CO)C(=O)NCC(=O)N[C@@H](C)C(=O)N1CCC[C@H]1C(=O)N1CCC[C@H]1C(=O)N1CCC[C@H]1C(=O)N[C@@H](CO)C(N)=O)C(C)C [Example 5] | 77.1 | > 913000 | 2262 | 12.0 | 0.44 | 120 | 128 | 239 | 4.61 | 4.2 | 24 | 27.1
CC[C@H](C)[C@H](NC(=O)[C@H](CCCN)NC(=O)[C@H](CC(=O)O)NC(=O)[C@H](CC(C)C)NC(=O)[C@](C)(CC(C)C)NC(=O)[C@@H](NC(=O)[C@H](CO)NC(=O)[C@H](Cc1ccc(O)cc1)NC(=O)[C@H](CC(=O)O)NC(=O)[C@H](CO)NC(=O)[C@@H](NC(=O)[C@H](Cc1ccccc1)NC(=O)[C@@H](NC(=O)CNC(=O)[C@H](CCC(=O)O)NC(=O)C(C)(C)NC(=O)[C@@H](N)Cc1ccc(O)cc1)[C@@H](C)O)[C@@H](C)CC)[C@@H](C)CC)C(=O)N[C@@H](Cc1c[nH]cn1)C(=O)N[C@@H](CCC(N)=O)C(=O)NC(C)(C)C(=O)N[C@@H](CCC(=O)O)C(=O)N[C@@H](Cc1ccccc1)C(=O)N[C@H](C(=O)N[C@H](CCC(=O)O)C(=O)N[C@@H](Cc1ccc(O)cc1)C(=O)N[C@@H](CCCCNC(=O)COCCOCCNC(=O)COCCOCCNC(=O)CC[C@H](NC(=O)CCCCCCCCCCCCCCCCC(=O)O)C(=O)O)C(=O)N[C@@H](CC(C)C)C(=O)N[C@@H](CCC(=O)O)C(=O)NCC(=O)NCC(=O)N1CCC[C@H]1C(=O)N[C@@H](CO)C(=O)N[C@@H](CO)C(=O)NCC(=O)N[C@@H](C)C(=O)N1CCC[C@H]1C(=O)N1CCC[C@H]1C(=O)N1CCC[C@H]1C(=O)N[C@@H](CO)C(N)=O)C(C)C [Example 7] | 193 | > 913000 | 1603 | 10.1 | 0.63 | 9 | 109 |  |  |  |  | 
